Measured values published in patent US20250032524A1, “BROAD SPECTRUM AMINOGLYCOSIDES AND USES THEREOF” (REVAGENIX, INC., priority 2022, published 2025).
Like-named read-outs stand apart in the source and are kept apart here.

What was measured:
Assay type in all cases: cell-based
P. aeruginosa [1] = experiment: MIC broth microdilution (CLSI); settings: Pseudomonas aeruginosa
Method in brief: (§1)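 2-fold serially diluted compound in cation-adjusted MHB, inoculated at 5×10^5 CFU/mL from 0.5 McFarland suspensions. Incubation: 35° C., ambient air, 18-24 hours. Endpoint: no visible growth (OD 600 nm<0.05); assay controlled with CLSI quality-control strains and neomycin.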

C. freundii = experiment: MIC broth microdilution (CLSI); settings: Citrobacter freundii, read-out: Activity (MIC)
Method in brief: as §1

K. pneumoniae = experiment: MIC broth microdilution (CLSI)
Method in brief: as §1

E. coli = experiment: MIC broth microdilution (CLSI); settings: Escherichia coli
Method in brief: as §1

P. mirabilis = experiment: MIC broth microdilution (CLSI); settings: Proteus mirabilis; strain APMI1048, MDR Clinical isolate (CDC CRE panel), CDC AR Bank 0159
Method in brief: as §1

K. aerogenes = experiment: MIC broth microdilution (CLSI); settings: Klebsiella aerogenes; strain AEAE1042, MDR Clinical isolate (CDC CRE panel), CDC AR Bank 0161
Method in brief: as §1

[2] = tested on: A. baumannii-calcoaceticus; experiment: Antibacterial surveillance of clinical isolates (MIC50/90); settings: 100 isolates
Protocol: (§2) Minimum inhibitory concentrations for representative example compounds herein were determined by a broth microdilution method in accordance with the Clinical and Laboratory Standards Institute (CLSI) guidelines. In brief, organism suspensions were adjusted to a 0.5 McFarland standard to yield a final inoculum between 3×10^5 and 7×10^5 colony-forming units (CFU)/mL. The inoculum was prepared by suspension of a colony from an agar plate that was prepared the previous day. Compound dilutions and inoculum were prepared in sterile, cation adjusted Mueller-Hinton Broth (Beckton Dickinson).
(§3) Bacteria were suspended in sterile saline and added to each assay plate to obtain a final concentration of 5×10^5 CFU/mL. An inoculum volume of 100 μL was added to wells containing 100 μL of broth with 2-fold serial dilutions of the test compound. All inoculated microdilution trays were incubated in ambient air at 35° C. for 18-24 hours. Following incubation, the lowest concentration of the compound that prevented visible growth (OD 600 nm<0.05) is recorded was the MIC. […] Performance of the assay was monitored by the use of laboratory quality-control strains and a standard compound with a defined MIC spectrum (neomycin), in accordance with CLSI guidelines.
(§4) Several compounds of the disclosure (Compound 1, 2, and 3) were further evaluated against several hundred bacterial isolates (isolated in the United States and Europe, 1:1) selected from the SENTRY Antimicrobial Surveillance Program (JMI Laboratories, North Liberty, Iowa). The set of clinical isolates included 300 randomly selected Enterobacterales, 103 randomly selected P. aeruginosa, 100 randomly selected A. baumannii-calcoaceticus, 20 randomly selected Methicillin-sensitive S. aureus (MSSA), and 30 randomly selected Methicillin-resistant S. aureus (MRSA). In addition, 101 Enterobacterales and 50 P. aeruginosa isolates with genetically defined mechanisms of aminoglycoside resistance were included. The MIC values at which ≥50% (MIC50) and ≥90% (MIC90) of isolates within a given set are inhibited were determined for each compound against each set of organisms.

P. aeruginosa [3] = experiment: as above; settings: Pseudomonas aeruginosa, 103 isolates
Protocol: as §2, §3, §4

[4] = tested on: Methicillin-sensitive S. aureus (MSSA); experiment: as above; settings: Staphylococcus aureus, MSSA, 20 isolates
Protocol: as §2, §3, §4

[5] = tested on: AG-resistant Enterobacterales; experiment: as above
Protocol: as §2, §3, §4

[6] = tested on: AG-resistant P. aeruginosa; experiment: as above; settings: Pseudomonas aeruginosa, 50 isolates with defined aminoglycoside resistance
Protocol: as §2, §3, §4

Enterobacterales = experiment: as above
Protocol: as §2, §3, §4

[7] = tested on: Methicillin-resistant S. aureus (MRSA); experiment: as above; settings: Staphylococcus aureus, MRSA, 30 isolates
Protocol: as §2, §3, §4

[8] = tested on: clinical isolates of multi-drug resistant bacterial pathogens including A. baumannii, MRSA, P. aeruginosa, and CRE; experiment: MIC secondary panel, overall statement; settings: read-out: minimum inhibitory concentration (MIC) values
Protocol: as §2, §3
Several compounds of the disclosure (Compounds 1, 2, 3, and 6) were further evaluated against a secondary panel of clinical isolates of multi-drug resistant bacterial pathogens including A. baumannii, methicillin-resistant Staphylococcus aureus (MRSA), P. aeruginosa, and carbapenem-resistant Enterobacteriaceae (CRE).

[9] = tested on: all sets of organisms tested (SENTRY clinical isolates); experiment: Antibacterial surveillance, overall statement; settings: all sets of organisms tested (Table 3); read-out: MIC50,90 values
Protocol: as §2, §3
as §4, with “The MIC values at which ≥50% (MIC50) and ≥90% (MIC90) of isolates within a given set are inhibited were determined for each compound against each set of organisms.” left out

Compound: NC[C@@H]1CC[C@@H](N)[C@@H](O[C@@H]2[C@@H](N)[C@H](O)[C@@H](NC(=O)[C@@H](O)[C@H](F)CN)[C@H](O)[C@H]2O[C@@H]2O[C@H](CO)[C@@H](O[C@H]3O[C@@H](CN)[C@@H](O)[C@H](O)[C@H]3N)[C@H]2O)O1 [Compound 1, (2R,3R)-4-amino-N-((1R,2S,3S,4R,5R,6S)-3-amino-5-(((2S,3R,4S,5R)-4-(((2R,3R,4R,5S,6S)-3-amino-6-(aminomethyl)-4,5-dihydroxytetrahydro-2H-pyran-2-yl)oxy)-3-hydroxy-5-(hydroxymethyl)tetrahydrofuran-2-yl)oxy)-4-(((2R,3R,6S)-3-amino-6-(aminomethyl)tetrahydro-2H-pyran-2-yl)oxy)-2,6-dihydroxycyclohexyl)-3-fluoro-2-hydroxybutanamide]
- MIC (P. aeruginosa [1]; read-out: Activity (MIC), strain NPAE0006, Efflux KO, Aph(3')-IIb): < 16 µg/mL
- MIC (P. aeruginosa [1]; read-out: Activity (MIC), strain NPAE0010, MexXY over-expressed, Aph(3')-IIb): < 16 µg/mL
- MIC (P. aeruginosa [1]; read-out: Activity (MIC), strain NPAE1288, MDR Clinical isolate): < 16 µg/mL
- MIC (P. aeruginosa [1]; read-out: Activity (MIC), strain NPAE1293, MDR Clinical isolate): < 16 µg/mL
- MIC (P. aeruginosa [1]; read-out: Activity (MIC), strain NPAE1299, MDR Clinical isolate): < 16 µg/mL
- MIC (P. aeruginosa [1]; read-out: Activity (MIC), strain NPAE1302, MDR Clinical isolate): < 16 µg/mL
- MIC (P. aeruginosa [1]; read-out: Activity (MIC), strain NPAE1303, MDR Clinical isolate): < 16 µg/mL
- MIC (P. aeruginosa [1]; read-out: Activity (MIC), strain NPAE1308, MDR Clinical isolate): < 16 µg/mL
- MIC (P. aeruginosa [1]; read-out: Activity (MIC), strain NPAE1310, MDR Clinical isolate): < 16 µg/mL
- MIC (P. aeruginosa [1]; read-out: Activity (MIC), strain NPAE1313, MDR Clinical isolate): > 16 µg/mL
- MIC (P. aeruginosa [1]; read-out: Activity (MIC), strain NPAE1316, MDR Clinical isolate): < 16 µg/mL
- MIC (P. aeruginosa [1]; read-out: Activity (MIC), strain NPAE1323, MDR Clinical isolate): < 16 µg/mL
- MIC (P. aeruginosa [1]; strain NPAE0001, WT Aph(3')-IIb, QC, read-out: Activity (MIC)): < 16 µg/mL
- MIC (P. aeruginosa [1]; strain NPAE0002, WT Aph(3')-IIb, read-out: Activity (MIC)): < 16 µg/mL
- MIC (P. aeruginosa [1]; strain NPAE0359, aph(3')-IIb KO (tetR), read-out: Activity (MIC)): < 16 µg/mL
- MIC (C. freundii): < 16 µg/mL
- MIC (K. pneumoniae; Klebsiella pneumoniae, strain AKPN1246, MDR Clinical isolate (CDC CRE panel), CDC AR Bank 0139): < 16 µg/mL
- Activity (MIC) (K. pneumoniae; strain AKPN1250, MDR Clinical isolate (CDC CRE panel), CDC AR Bank 0143): + (MIC threshold for positive activity (+) is ≤16 μg/mL)
- Activity (MIC) (K. pneumoniae; strain AKPN1253, MDR Clinical isolate (CDC CRE panel), CDC AR Bank 0148): + (MIC threshold for positive activity (+) is ≤16 μg/mL)
- Activity (MIC) (K. pneumoniae; strain AKPN1255, MDR Clinical isolate (CDC CRE panel), CDC AR Bank 0153): + (MIC threshold for positive activity (+) is ≤16 μg/mL)
- MIC (E. coli; read-out: Activity (MIC), strain AECO1225, MDR Clinical isolate (CDC CRE panel), CDC AR Bank 0118): < 16 µg/mL
- MIC (E. coli; read-out: Activity (MIC), strain AECO1226, MDR Clinical isolate (CDC CRE panel), CDC AR Bank 0119): < 16 µg/mL
- MIC (E. coli; read-out: Activity (MIC), strain AECO1227, MDR Clinical isolate (CDC CRE panel), CDC AR Bank 0128): < 16 µg/mL
- MIC (E. coli; read-out: Activity (MIC), strain NECO0003, ΔtolC): < 16 µg/mL
- MIC (E. coli; read-out: Activity (MIC), strain NECO0245, ArmA): < 16 µg/mL
- MIC (E. coli; strain NECO0001, WT QC, read-out: Activity (MIC)): < 16 µg/mL
- MIC (E. coli; strain NECO0002, WT, read-out: Activity (MIC)): < 16 µg/mL
- MIC (E. coli; strain NECO0243, empty vector, read-out: Activity (MIC)): < 16 µg/mL
- MIC (E. coli; strain NECO0244, AAC(6')-Ib, read-out: Activity (MIC)): < 16 µg/mL
- MIC (E. coli; strain NECO0289, APH(3')-Ia, read-out: Activity (MIC)): < 16 µg/mL
- MIC (E. coli; strain NECO0302, AAC(3)-IIa, read-out: Activity (MIC)): < 16 µg/mL
- MIC (E. coli; strain NECO0350, AAC(2')-I, read-out: Activity (MIC)): < 16 µg/mL
- MIC (E. coli; strain NECO0359, ANT(4')-Ia, read-out: Activity (MIC)): < 16 µg/mL
- MIC (P. mirabilis): < 16 µg/mL
- MIC (K. aerogenes): < 16 µg/mL
- MIC50 ([2]; read-out: MIC50): < 16 µg/mL
- MIC90 ([2]; read-out: MIC90): < 16 µg/mL
- MIC50 (P. aeruginosa [3]; read-out: MIC50): < 16 µg/mL
- MIC90 (P. aeruginosa [3]; read-out: MIC90): < 16 µg/mL
- MIC50 ([4]; read-out: MIC50): < 16 µg/mL
- MIC90 ([4]; read-out: MIC90): < 16 µg/mL
- MIC50 [5]: < 16 µg/mL
- MIC90 [5]: < 16 µg/mL
- MIC50 ([6]; read-out: MIC50): < 16 µg/mL
- MIC90 ([6]; read-out: MIC90): < 16 µg/mL
- MIC50 (Enterobacterales): < 16 µg/mL
- MIC90 (Enterobacterales): < 16 µg/mL
- MIC50 ([7]; read-out: MIC50): < 16 µg/mL
- MIC90 ([7]; read-out: MIC90): < 16 µg/mL
- MIC [8]: ≤ 16 µg/mL
- MIC50 [9]: ≤ 16 µg/mL
